Assay results published in patent publication US6664271B1, “Immunopotentiator agents” (Eli Lilly and Company, priority 1999, dated 2003).
Marks after values point to notes of the source that are not given here.

System: E. coli 19B
Assay: bacterial clearance of E. coli from peripheral blood of neonatal chicks (Example 77)
Type: in vivo, chick
Details: single subcutaneous injection of 25 μg, E. coli challenge, blood 14-18 hours post-challenge
Procedure: The compounds of Example 15 ((S)-ethyl 1-benzoyl-3-piperidinecarboxylate), Example 29 (1-benzoyl-3-butyrylpiperidine), Example 30 ((S)-ethyl 1-(2-thiopheneacetyl)-3-piperidinecarboxylate) and Example 68 ((S)-ethyl 1-benzyl-3-piperidinecarboxylate 1-methiodide), respectively, were tested to determine whether a single subcutaneous injection enhanced the bacterial clearance of E. coli from the peripheral blood of neonatal chicks. Bacterial clearance is a measurement of cell-mediated immunity, specifically, phagocyte function, in animals. An approved Animal Care and Use Committee protocol governed the activity in this experiment.
1 ml syringes with 21 g 1″ needles (Becton Dickinson and Company Franklin Lakes, N.J. 07417-1884); 1 ml syringe with 25 g ⅝″ needles (Becton Dickinson and Company Franklin Lakes, N.J. 07417-1884); EMB agar plates (Difco Laboratories, Becton Dickinson Microbiology Systems, Sparks, Md. 21152); Culture tubes (14 ml polystyrene round bottom, Becton Dickinson Labware, Franklin Lakes, N.J. 07417-1886); Dulbecco's Phosphate Buffered Saline w/o Mg^++ or Ca^++ (Gibco BRL, Life Technologies Rockville, Md. 20850). Peterson x Hubbard male chicks (day of hatch from a commercial hatchery) were utilized
160 chicks were divided into 6 groups: Group 1=Controls (acetate-buffered saline vehicle); Group 2=Compound of Example 15 ((S)-ethyl 1-benzoyl-3-piperidinecarboxylate); Group 3=Compound of Example 29 (1-benzoyl-3-butyrylpiperidine); Group 4=Compound of Example 30 ((S)-ethyl 1-(2-thiopheneacetyl)-3-piperidinecarboxylate); Group 5=Compound of Example 68 ((S)-ethyl 1-benzyl-3-piperidinecarboxylate 1-methiodide); and Group 6=environmental controls. Groups 1-5 contained 3 replicates of 10 chicks each and Group 6 contained 1 replicate of 10 chicks.
Day −2 Upon arrival, day of hatch chicks were randomized (10/group), and placed in a Petersime heated brooder battery unit (Petersime Incubator Company, Gettysburg, Ohio 45328). […] All chicks were given ad libitum access to a commercially available starter feed and water.
Day 0 11:00 AM. Five to ten colonies of E. coli 19B were selected from a fresh overnight blood agar plate (TSA II with 5% sheep blood, Becton Dickinson Microbiology Systems Cockeysville, Md. 21030) and placed into 100 ml Brain Heart Infusion broth (Difco Laboratories, Becton Dickinson Microbiology Systems Sparks, Md. 21152) in a flask. […]
Day 5 EMB plates were removed from the incubator and bacterial colonies were counted and recorded to calculate CFU/ml/chick.
Data was transformed to logio values, and analysis of variance was used to determine significant differences between the treatment groups and controls. Data was expressed as the percentage of enhancedbacterial clearance compared to E. coli-challenged controls. […]

## CCOC(=O)[C@H]1CCCN(C(=O)Cc2cccs2)C1 [Example 30, (S)-Ethyl 1-(2-Thiopheneacetyl)-3-piperidinecarboxylate]
  % Enhanced Clearance Compared to Controls: 61* %
